Patent US12259352B2, “Membrane enhanced sensors” (University Of Cincinnati, priority 2018, dated 2025)

Legend:
[1] = Cortisol transport through hydrophobic barrier (track-etch membrane with castor oil) to electrochemical aptamer sensor, FIG. 6B; conditions: sensor solution hundreds of micrometers thick; track-etch membrane of 10% porosity filled with castor oil
[2] = cited from earlier work

Row | Compound | concentration lag time (time for sensor solution to reach 90% of sample solution concentration) [1] [min] | Solubility in Water (in words) [2]
1 | C[C@]12CCC(=O)C=C1CC[C@@H]1[C@@H]2[C@@H](O)C[C@@]2(C)[C@H]1CC[C@]2(O)C(=O)CO [cortisol] | ~30 | 
2 | CCCCCC/C=C\CCCCCCCC(=O)O [Palmitoleic Acid] |  | Low
3 | CCCCC/C=C\C/C=C\C/C=C\C/C=C\CCCC(=O)O [Arachidonic Acid] |  | Negligible
